Assay results published in doi:10.1101/2021.04.08.439011v1 (biorxiv, 2021).
Where two headings read alike, the source gives them in different places.

Tests used:
HIPK3 = HIPK3 (Homo sapiens, UniProt Q9H422); conditions: 1 µM; binder
LOK = LOK (Homo sapiens, UniProt O94804); conditions: 1 µM; binder
RPS6KA3 = RPS6KA3 (Homo sapiens, UniProt P51812); conditions: binder
TAOK2 = TAOK2 (Homo sapiens, UniProt Q9UL54); conditions: 1 µM; binder
MKNK1 = MKNK1 (Homo sapiens, UniProt Q9BUB5); conditions: 1 µM; binder
PIK3CA(H1047Y) = PIK3CA(H1047Y) (Homo sapiens, UniProt P42336, H1047Y); conditions: 1 µM; binder
MARK1 = MARK1 (Homo sapiens, UniProt Q9P0L2); conditions: 1 µM; binder
PRKD3 = PRKD3 (Homo sapiens, UniProt O94806); conditions: 1 µM; binder
DRAK1 = DRAK1 (Homo sapiens, UniProt Q9UEE5); conditions: 1 µM; binder
p38-gamma = p38-gamma (Homo sapiens, UniProt P53778); conditions: 1 µM; binder
ABL1(E255K) = ABL1(E255K) (Homo sapiens, UniProt P00519, E255K); conditions: phosphorylated; 1 µM; binder
ADCK3 = ADCK3 (Homo sapiens, UniProt Q8NI60); conditions: 1 µM; binder
ERK3 = ERK3 (Homo sapiens, UniProt Q16659); conditions: 1 µM; binder
HIPK1 = HIPK1 (Homo sapiens, UniProt Q86Z02); conditions: 1 µM; binder
FLT3(K663Q) = FLT3(K663Q) (Homo sapiens, UniProt P36888, K663Q); conditions: 1 µM; binder
LKB1 = LKB1 (Homo sapiens, UniProt Q15831); conditions: 1 µM; binder
EGFR(L861Q) = EGFR(L861Q) (Homo sapiens, UniProt P00533, L861Q); conditions: 1 µM; binder
JNK3 = JNK3 (Homo sapiens, UniProt P53779); conditions: 1 µM; binder
YANK1 = YANK1 (Homo sapiens, UniProt Q8WU08); conditions: 1 µM; binder
PCTK3 = PCTK3 (Homo sapiens, UniProt Q07002); conditions: 1 µM; binder
CSNK1G3 = CSNK1G3 (Homo sapiens, UniProt Q9Y6M4); conditions: 1 µM; binder
NIM1 = NIM1 (Homo sapiens, UniProt Q8IY84); conditions: 1 µM; binder
ERBB2 = ERBB2 (Homo sapiens, UniProt P04626); conditions: 1 µM; binder
FAK = FAK (Homo sapiens, UniProt Q05397); conditions: 1 µM; binder
RET(V804M) = RET(V804M) (Homo sapiens, UniProt P07949, V804M); conditions: 1 µM; binder
MKK7 = MKK7 (Homo sapiens, UniProt O14733); conditions: 1 µM; binder
PIK3CA(C420R) = PIK3CA(C420R) (Homo sapiens, UniProt P42336, C420R); conditions: 1 µM; binder
PIK3CA(E542K) = PIK3CA(E542K) (Homo sapiens, UniProt P42336, E542K); conditions: 1 µM; binder
SRPK1 = SRPK1 (Homo sapiens, UniProt Q96SB4); conditions: 1 µM; binder
SRPK1, sequence (Q96SB4 whole entry): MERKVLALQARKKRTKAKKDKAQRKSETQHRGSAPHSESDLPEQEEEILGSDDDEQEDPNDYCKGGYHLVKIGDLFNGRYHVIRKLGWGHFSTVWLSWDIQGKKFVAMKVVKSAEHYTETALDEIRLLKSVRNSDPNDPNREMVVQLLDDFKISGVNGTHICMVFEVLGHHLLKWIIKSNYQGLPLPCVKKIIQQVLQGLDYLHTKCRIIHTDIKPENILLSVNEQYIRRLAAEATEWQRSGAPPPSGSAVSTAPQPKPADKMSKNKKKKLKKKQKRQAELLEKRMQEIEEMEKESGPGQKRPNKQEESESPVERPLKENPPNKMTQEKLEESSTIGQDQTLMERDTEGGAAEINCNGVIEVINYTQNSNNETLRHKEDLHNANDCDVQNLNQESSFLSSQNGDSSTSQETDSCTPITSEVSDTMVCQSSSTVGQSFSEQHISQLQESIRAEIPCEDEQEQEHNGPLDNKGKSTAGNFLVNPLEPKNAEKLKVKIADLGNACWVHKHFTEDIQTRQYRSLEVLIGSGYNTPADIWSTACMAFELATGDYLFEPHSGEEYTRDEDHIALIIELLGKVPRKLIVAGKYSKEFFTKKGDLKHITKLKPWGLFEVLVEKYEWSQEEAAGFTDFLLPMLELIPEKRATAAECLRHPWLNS

RPS6KA3, sequence (P51812 whole entry): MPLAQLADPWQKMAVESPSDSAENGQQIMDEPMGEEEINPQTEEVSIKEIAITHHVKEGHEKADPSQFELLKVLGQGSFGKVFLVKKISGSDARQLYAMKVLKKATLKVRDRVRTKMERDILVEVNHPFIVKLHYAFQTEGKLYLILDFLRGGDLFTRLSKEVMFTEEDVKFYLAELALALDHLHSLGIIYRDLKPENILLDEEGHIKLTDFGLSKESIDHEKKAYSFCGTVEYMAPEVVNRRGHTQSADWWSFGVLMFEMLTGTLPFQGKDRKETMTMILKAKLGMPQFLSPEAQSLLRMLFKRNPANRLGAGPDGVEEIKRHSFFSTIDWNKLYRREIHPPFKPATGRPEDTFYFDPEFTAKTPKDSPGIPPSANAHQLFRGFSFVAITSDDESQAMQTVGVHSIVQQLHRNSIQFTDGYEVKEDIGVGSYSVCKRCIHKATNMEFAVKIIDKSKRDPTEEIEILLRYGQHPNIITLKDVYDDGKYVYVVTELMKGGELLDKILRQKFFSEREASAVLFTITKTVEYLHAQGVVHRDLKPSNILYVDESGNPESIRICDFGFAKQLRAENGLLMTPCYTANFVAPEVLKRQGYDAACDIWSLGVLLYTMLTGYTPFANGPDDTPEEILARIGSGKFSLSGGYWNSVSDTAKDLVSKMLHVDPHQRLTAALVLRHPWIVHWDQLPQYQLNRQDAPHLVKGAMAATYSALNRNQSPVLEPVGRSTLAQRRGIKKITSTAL
DRAK1, sequence (Q9UEE5 whole entry): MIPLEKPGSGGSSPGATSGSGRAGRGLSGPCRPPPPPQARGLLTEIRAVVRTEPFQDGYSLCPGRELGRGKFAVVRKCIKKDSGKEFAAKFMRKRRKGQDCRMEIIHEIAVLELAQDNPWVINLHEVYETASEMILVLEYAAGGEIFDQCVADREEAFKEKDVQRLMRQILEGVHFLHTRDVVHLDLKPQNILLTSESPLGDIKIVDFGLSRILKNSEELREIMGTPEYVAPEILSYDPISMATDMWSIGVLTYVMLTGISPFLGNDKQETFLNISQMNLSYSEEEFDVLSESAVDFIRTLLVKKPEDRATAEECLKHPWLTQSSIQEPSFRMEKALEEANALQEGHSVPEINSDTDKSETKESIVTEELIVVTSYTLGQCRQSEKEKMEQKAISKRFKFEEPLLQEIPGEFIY
RET(V804M), sequence (P07949 whole entry V804M): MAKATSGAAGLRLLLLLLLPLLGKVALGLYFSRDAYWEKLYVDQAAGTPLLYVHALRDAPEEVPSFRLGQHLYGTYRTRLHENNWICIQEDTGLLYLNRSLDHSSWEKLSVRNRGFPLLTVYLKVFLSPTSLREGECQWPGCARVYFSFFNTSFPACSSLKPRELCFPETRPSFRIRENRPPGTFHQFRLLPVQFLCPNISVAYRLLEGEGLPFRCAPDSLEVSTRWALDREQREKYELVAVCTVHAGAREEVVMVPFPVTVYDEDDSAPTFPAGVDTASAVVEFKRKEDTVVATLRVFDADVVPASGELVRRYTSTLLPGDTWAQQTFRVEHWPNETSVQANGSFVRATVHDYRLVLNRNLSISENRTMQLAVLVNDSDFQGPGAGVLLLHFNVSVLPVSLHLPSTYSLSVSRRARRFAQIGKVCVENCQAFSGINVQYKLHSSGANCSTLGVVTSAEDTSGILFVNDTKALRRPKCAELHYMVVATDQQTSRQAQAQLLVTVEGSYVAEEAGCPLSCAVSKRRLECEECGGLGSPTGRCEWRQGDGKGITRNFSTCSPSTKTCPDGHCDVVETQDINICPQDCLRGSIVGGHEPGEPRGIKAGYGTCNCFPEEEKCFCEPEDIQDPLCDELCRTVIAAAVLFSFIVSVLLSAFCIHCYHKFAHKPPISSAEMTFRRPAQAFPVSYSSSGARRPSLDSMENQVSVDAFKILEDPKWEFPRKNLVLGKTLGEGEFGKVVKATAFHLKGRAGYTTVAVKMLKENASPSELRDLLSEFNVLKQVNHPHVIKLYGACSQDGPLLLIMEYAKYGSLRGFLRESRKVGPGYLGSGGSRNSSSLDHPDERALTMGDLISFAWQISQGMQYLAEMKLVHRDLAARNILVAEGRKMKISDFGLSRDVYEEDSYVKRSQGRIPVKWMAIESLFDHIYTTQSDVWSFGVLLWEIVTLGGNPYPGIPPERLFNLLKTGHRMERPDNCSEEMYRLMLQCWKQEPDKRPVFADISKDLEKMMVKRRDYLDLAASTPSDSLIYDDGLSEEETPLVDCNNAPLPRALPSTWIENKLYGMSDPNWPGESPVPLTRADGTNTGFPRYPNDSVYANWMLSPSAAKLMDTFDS
YANK1, sequence (Q8WU08 whole entry): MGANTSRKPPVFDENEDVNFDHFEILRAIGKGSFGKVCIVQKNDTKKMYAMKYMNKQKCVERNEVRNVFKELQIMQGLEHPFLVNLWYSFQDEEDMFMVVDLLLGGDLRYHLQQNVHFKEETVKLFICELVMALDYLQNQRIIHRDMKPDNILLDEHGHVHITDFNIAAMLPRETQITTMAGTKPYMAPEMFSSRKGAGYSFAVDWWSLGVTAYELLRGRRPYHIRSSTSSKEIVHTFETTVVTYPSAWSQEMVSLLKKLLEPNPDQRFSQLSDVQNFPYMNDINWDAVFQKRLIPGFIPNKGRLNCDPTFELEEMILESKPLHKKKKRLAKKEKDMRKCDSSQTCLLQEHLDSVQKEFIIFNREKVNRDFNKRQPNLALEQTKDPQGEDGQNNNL
HIPK1, sequence (Q86Z02 whole entry): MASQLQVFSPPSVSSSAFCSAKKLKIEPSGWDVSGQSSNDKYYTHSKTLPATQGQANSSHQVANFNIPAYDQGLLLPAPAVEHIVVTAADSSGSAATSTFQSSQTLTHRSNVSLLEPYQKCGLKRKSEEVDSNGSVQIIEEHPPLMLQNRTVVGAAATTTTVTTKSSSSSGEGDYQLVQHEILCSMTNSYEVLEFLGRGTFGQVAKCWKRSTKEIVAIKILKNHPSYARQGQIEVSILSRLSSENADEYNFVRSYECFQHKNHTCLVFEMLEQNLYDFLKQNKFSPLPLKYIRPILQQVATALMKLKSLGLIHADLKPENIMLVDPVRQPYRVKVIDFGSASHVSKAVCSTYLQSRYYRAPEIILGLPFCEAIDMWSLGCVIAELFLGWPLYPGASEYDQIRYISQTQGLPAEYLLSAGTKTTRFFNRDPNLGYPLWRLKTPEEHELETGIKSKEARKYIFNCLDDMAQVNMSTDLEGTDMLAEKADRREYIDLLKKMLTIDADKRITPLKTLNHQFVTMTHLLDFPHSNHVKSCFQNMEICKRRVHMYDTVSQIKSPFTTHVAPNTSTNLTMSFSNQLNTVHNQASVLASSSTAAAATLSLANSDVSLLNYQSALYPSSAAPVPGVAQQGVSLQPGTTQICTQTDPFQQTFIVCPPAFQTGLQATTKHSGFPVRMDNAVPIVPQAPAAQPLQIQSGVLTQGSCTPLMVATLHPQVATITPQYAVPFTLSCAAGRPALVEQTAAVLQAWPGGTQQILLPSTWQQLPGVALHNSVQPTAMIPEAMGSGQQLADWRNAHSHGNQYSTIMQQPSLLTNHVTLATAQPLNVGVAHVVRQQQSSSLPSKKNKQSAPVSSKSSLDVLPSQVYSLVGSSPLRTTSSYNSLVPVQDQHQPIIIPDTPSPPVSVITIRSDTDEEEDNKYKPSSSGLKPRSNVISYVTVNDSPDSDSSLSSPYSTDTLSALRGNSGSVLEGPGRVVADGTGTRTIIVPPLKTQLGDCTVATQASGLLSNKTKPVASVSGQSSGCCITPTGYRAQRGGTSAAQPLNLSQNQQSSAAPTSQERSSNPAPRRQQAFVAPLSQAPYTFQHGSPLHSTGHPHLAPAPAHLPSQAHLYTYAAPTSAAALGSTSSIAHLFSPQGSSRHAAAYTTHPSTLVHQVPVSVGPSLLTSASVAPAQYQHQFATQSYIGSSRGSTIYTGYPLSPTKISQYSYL
JNK3, sequence (P53779 whole entry): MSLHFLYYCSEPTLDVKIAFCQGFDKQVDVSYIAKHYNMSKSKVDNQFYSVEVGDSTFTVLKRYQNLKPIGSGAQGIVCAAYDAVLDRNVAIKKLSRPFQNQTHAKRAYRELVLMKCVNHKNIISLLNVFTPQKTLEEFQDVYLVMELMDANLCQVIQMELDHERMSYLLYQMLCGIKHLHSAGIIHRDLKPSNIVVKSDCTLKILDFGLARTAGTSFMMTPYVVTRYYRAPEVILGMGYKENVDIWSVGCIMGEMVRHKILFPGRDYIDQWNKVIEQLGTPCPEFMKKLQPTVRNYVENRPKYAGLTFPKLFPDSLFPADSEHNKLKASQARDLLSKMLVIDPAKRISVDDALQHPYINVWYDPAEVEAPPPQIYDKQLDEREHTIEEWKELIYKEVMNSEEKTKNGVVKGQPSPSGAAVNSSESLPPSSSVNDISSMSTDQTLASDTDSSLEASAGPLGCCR

CNc1ncc2cc(-c3ccc(-c4cccc(C)n4)cc3Cl)c(=O)n(C[C@H]3OC[C@H](N)CO3)c2n1 [compound 6, G-5555]
Percent Control (HIPK3): 100% | Percent Control (LOK): 2.1% | Percent Control (RPS6KA3; Kin.Dom.1 N-terminal): 65% | Percent Control (RPS6KA3; Kin.Dom.2 C-terminal, 1 µM): 63% | Percent Control (TAOK2): 100% | Percent Control (MKNK1): 100% | Percent Control (PIK3CA(H1047Y)): 86% | Percent Control (MARK1): 68% | Percent Control (PRKD3): 20% | Percent Control (DRAK1): 100% | Percent Control (p38-gamma): 100% | Percent Control (ABL1(E255K)): 100% | Percent Control (ADCK3): 100% | Percent Control (ERK3): 100% | Percent Control (HIPK1): 100% | Percent Control (FLT3(K663Q)): 100% | Percent Control (LKB1): 100% | Percent Control (EGFR(L861Q)): 100% | Percent Control (JNK3): 87% | Percent Control (YANK1): 3.7% | Percent Control (PCTK3): 100% | Percent Control (CSNK1G3): 100% | Percent Control (NIM1): 100% | Percent Control (ERBB2): 100% | Percent Control (FAK): 100% | Percent Control (RET(V804M)): 100% | Percent Control (MKK7): 77% | Percent Control (PIK3CA(C420R)): 100% | Percent Control (PIK3CA(E542K)): 100% | Percent Control (SRPK1): 98%
